In US8247211B2, “Glycopeptide antibiotics” (American Cyanamid Company, priority 2001, dated 2012):

How the values were obtained:
Experiment in all cases: In vitro antibacterial evaluation: minimum inhibitory concentration (MIC), broth dilution method
Assay type in all cases: cell-based
Escherichia coli = test system: Escherichia coli
Outline: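 Broth dilution per NCCLS M7-A2 in Muller-Hinton II […], inoculum 5×10^5 CFU/mL, antibiotic tested over 64-0.06 μg/mL. MIC is taken as the lowest concentration that inhibits growth. Panel includes recent clinical isolates resistant to methicillin, penicillin and/or vancomycin.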

Staphylococcus sp. = conditions: broth dilution, 18 hours at 35° C.
Outline: (§1)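 An MIC is reported for each organism as the least concentration giving inhibition, using broth dilution over 64-0.06 μg/mL with a 5×10^5 CFU/mL inoculum.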

Enterococcus sp. = test system: Enterococcus sp.
Outline: as §1

Streptococcus sp. = test system: Streptococcus sp.
Outline: as §1

[1] = broth dilution, inoculum 5×10^5 CFU/mL, 18 hours at 35° C.

Cyclo[glycyl-β-methylphenylalanyl-O-[4-O-[4,6-O-β-(carboxymethoxy)benzylidene]hexopyranosyl]hexonyranosyl]tyrosyl-3-(2-iminoimidazolidin-4-yl)seryl-3-(3-hexopyranosyl-2-iminoimidazolidin-4-yl)serylseryl] [Example 166]
MIC Escherichia coli (ATCC 25922) (Escherichia coli; strain ATCC 25922): >64 µg/mL
MIC Escherichia coli (GC 4559) (Escherichia coli; strain GC 4559): >64 µg/mL
MIC Escherichi coli (GC 4560) (Escherichia coli; strain GC 4560): 2 µg/mL
MIC Coagulase Negative Staphylococcus (GC 4547) (Staphylococcus sp.; 5×10^5 CFU/mL): 4 µg/mL
MIC Coagulase Negative Staphylococcus (GC 4548) (Staphylococcus sp.; 5×10^5 CFU/mL): 4 µg/mL
MIC Coagulase Negative Staphylococcus (GC 4549) (Staphylococcus sp.; 5×10^5 CFU/mL): 4 µg/mL
MIC Coagulase Negative Staphylococcus (GC 6257) (Staphylococcus sp.; 5×10^5 CFU/mL): 4 µg/mL
MIC Staphylococcus aureus (ATCC 29213) (Staphylococcus sp.; 5×10^5 CFU/mL): 8 µg/mL
MIC Staphylococcus aureus (GC 1131) (Staphylococcus sp.; 5×10^5 CFU/mL): 8 µg/mL
MIC Staphylococcus aureus (GC 4541) (Staphylococcus sp.; 5×10^5 CFU/mL): 8 µg/mL
MIC Staphylococcus aureus-SMITH (GC 4543) (Staphylococcus sp.; 5×10^5 CFU/mL): 4 µg/mL
MIC Staphylococcus aureus (ATCC 29213) (Staphylococcus sp.; strain ATCC 29213): 8 µg/mL
MIC Staphylococcus aureus (GC 1131) (Staphylococcus sp.; strain GC 1131): 8 µg/mL
MIC Staphylococcus aureus (GC 4541) (Staphylococcus sp.; strain GC 4541): 8 µg/mL
MIC Staphylococcus aureus-SMITH (GC 4543) (Staphylococcus sp.; strain GC 4543): 4 µg/mL
MIC Coagulase Negative Staphylococcus (GC 4547) (Staphylococcus sp.; strain GC 4547): 4 µg/mL
MIC Coagulase Negative Staphylococcus (GC 4548) (Staphylococcus sp.; strain GC 4548): 4 µg/mL
MIC Coagulase Negative Staphylococcus (GC 4549) (Staphylococcus sp.; strain GC 4549): 4 µg/mL
MIC Coagulase Negative Staphylococcus (GC 6257) (Staphylococcus sp.; strain GC 6257): 4 µg/mL
MIC Enterococcus avium (GC 4558) (Enterococcus sp.; [1]): 32 µg/mL
MIC Enterococcus faecalis (ATCC 29212) (Enterococcus sp.; [1]): 32 µg/mL
MIC Enterococcus faecalis (GC 2242) (Enterococcus sp.; [1]): 32 µg/mL
MIC Enterococcus faecalis (GC 6189) (Enterococcus sp.; [1]): 32 µg/mL
MIC Enterococcus faecium (GC 2243) (Enterococcus sp.; [1]): 32 µg/mL
MIC Enterococcus faecium (GC 4556) (Enterococcus sp.; [1]): 32 µg/mL
MIC Enterococcus faecalis (ATCC 29212) (Enterococcus sp.; strain ATCC 29212): 32 µg/mL
MIC Enterococcus faecalis (GC 2242) (Enterococcus sp.; strain GC 2242): 32 µg/mL
MIC Enterococcus faecium (GC 2243) (Enterococcus sp.; strain GC 2243): 32 µg/mL
MIC Enterococcus faecium (GC 4556) (Enterococcus sp.; strain GC 4556): 32 µg/mL
MIC Enterococcus avium (GC 4558) (Enterococcus sp.; strain GC 4558): 32 µg/mL
MIC Enterococcus faecalis (GC 6189) (Enterococcus sp.; strain GC 6189): 32 µg/mL
MIC Streptococcus pneumoniae (ATCC 6301) (Streptococcus sp.; [1]): 1 µg/mL
MIC Streptococcus pneumoniae (GC 1894) (Streptococcus sp.; [1]): 1 µg/mL
MIC Streptococcus pneumoniae (ATCC 6301) (Streptococcus sp.; strain ATCC 6301): 1 µg/mL
MIC Streptococcus pneumoniae (GC 1894) (Streptococcus sp.; strain GC 1894): 1 µg/mL
